Measured values reported in US11207320B2, “Compositions and methods for cancer expressing PDE3A or SLFN12” (The Broad Institute, Inc., priority 2015, dated 2021).

Tests used:
Format in all cases: cell-based
A549 cells = assay: Sensitization of DNMDP-resistant cell line by expression of SLFN12 or SLFN12 and PDE3A; settings: A549 expressing SLFN12
Description: FIG. 22 is a plot showing sensitization of a DNMDP-resistant cell line by expression of SLFN12 or expression of SFLN12 and PDE3A.
Adding PDE3A expression led to further sensitization.

HeLa cells [1] = assay: DNMDP cytotoxicity after targeting PDE3A locus using CRISPR; settings: HeLa infected with Cas9 and sgRNAs against PDE3A
Experimental: FIG. 11A is a Western blot. HeLa cells were infected with Cas9 and indicated guide RNAs (sgRNA) against PDE3A. Western blots were probed for PDE3A at indicated time points. FIG. 11B is a bar graph showing percent rescue of HeLa cells that were infected with indicated sgRNAs for two weeks and treated with 1 μM of 6-(4-(diethylamino)-3-nitrophenyl)-5-methyl-4,5-dihydropyridazin-3(2H)-one (DNMDP) for 48 hours. Percent rescue was normalized to the Cas9-only control. FIG. 11C is a plot showing viability of cells infected with indicated sgRNAs and treated with various concentrations of 6-(4-(diethylamino)-3-nitrophenyl)-5-methyl-4,5-dihydropyridazin-3(2H)-one (DNMDP).
Based on the observations that DNMDP-sensitive cells expressed high levels of PDE3A, and that DNMDP competed with non-cytotoxic inhibitors for PDE3A binding, it was hypothesized that DNMDP mediated its cytotoxic phenotype through the interaction with PDE3A and that PDE3A abundance was a direct cellular determinant of DNMDP sensitivity. To validate this hypothesis, the effect of reducing levels of PDE3A on the response to DNMDP was tested. […] In an independent approach using an siRNA smart-pool containing four different siRNAs targeting PDE3A, PDE3A expression was reduced in HeLa cell line with a maximum efficiency of 70% between 24 and 72 hours after transfection. […]

HeLa cells [2] = settings: co-treated with DNMDP, 48 hours
Experimental: HeLa cells were co-treated with 30 nM DNMDP (the EC70 concentration) and 20 μM of each bioactive compound. Cell viability after 48-hour treatment was assessed by ATP consumption as described earlier.
1000 HeLa cells were plated in a 384-well plate in 40 μl of DMEM supplemented with 10% Fetal Bovine Serum and 1% Pen/Strep. 24 hours after plating, a compound-library of 1600 bioactive molecules (Pharmacon) was added at a concentration of 20 μM. In parallel to bioactive compound incubation, DNMDP was added to a final concentration of 30 nM and incubated for 48 hours. Cell viability was assessed as described in Compound library screening in NCI-H1734 and A549 cell lines.

Row | SMILES | sensitivity of A549 cells upon expression of SLFN12 (A549 cells) | rescue of toxicity by PDE3A sgRNA2 and sgRNA3 (HeLa cells [1]) | RC50 (the concentration at which it achieved 50% rescue) (HeLa cells [2]) [nM]
1 | CCN(CC)c1ccc(C2=NNC(=O)CC2C)cc1[N+](=O)[O-] (stereo not drawn) [DNMDP, 6-(4-(diethylamino)-3-nitrophenyl)-5-methyl-4,5-dihydropyridazin-3(2H)-one] | sufficient to confer DNMDP sensitivity | significant rescue of toxicity | 
2 | COc1cc2c(cc1OC)-c1c/c(=N\c3c(C)cc(C)cc3C)n(C)c(=O)n1CC2 [trequinsin, 9,10-dimethoxy-3-methyl-2-(2,4,6-trimethylphenyl)imino-6,7-dihydropyrimido[6,1-a]isoquinolin-4-one] |  |  | < 1
